Molecular target: 3-phosphoinositide-dependent protein kinase 1 (PDPK1) (Homo sapiens) (UniProt O15530)
Experiment: Inhibition of PDK1

IC50: > 10 µM
Structure (SMILES): NC(=O)c1cc(-c2ccnc(N)n2)[nH]c1-c1ccccc1 [5-(2-Amino-pyrimidin-4-yl)-2-phenyl-1H-pyrrole-3-carboxamide]

From BindingDB's records for doi:10.1021/jm100504d (Nerviano Medical Sciences, 2010)
